Entries after “also recorded” stand apart in the source; their conditions may differ.
Key:
[1] = system: CD4+CD25+ nTregs; assay: Functional in-vitro Treg cell assay (flow cytometry, ELISA, real-time PCR); assay type: cell-based, mouse
[2] = system: NOD/Schilt mice; assay: Type 1 diabetes mouse model; assay type: in vivo
Method: NOD/Schilt mice were used to assess the role of NAD+ as a treatment for Type I Diabetes (T1D). By the 20th week, […] started consistently rising above the normal average. By week 25, […] were detected over 600 mg/dL. These levels were consistently high for 1 week before treatment with NAD+ was initiated. Treatment with NAD+ was given daily at 40 mg per mouse.
It is important to note that most T1D studies begin treating diabetic animals when glucose levels reach 250 mg/dl or greater for 2 consecutive days.

[3] = system: naïve CD4+ T cells; assay: Naïve CD4+ T cell differentiation under iTreg polarizing conditions; assay type: cell-based, mouse
Source text: Next, it was investigated whether NAD^+ modulates CD4^+ T differentiation under iTreg polarizing conditions. Isolated naïve CD4^+ T cells were activated with anti-CD3/CD28 antibodies in presence of recombinant TGFβ and IL-2 cytokines and blocking anti-IL-4, anti-IL-12 and anti-IFNγ antibodies.
(§1) Single-cell leukocyte suspensions were obtained from spleens from 8-10 week old DBA mice and CD4^− T cells were isolated by negative selection using a CD4^+ T cell isolation kit (MILTENYI BIOTEC, Bergisch Gladbach, Germany). Cells were further sorted using α-CD4-PE (EBIOSCIENCE, San Diego, Calif.) and purities of CD4^+ T cells after isolation were >98%.
(§2) All recombinant cytokines and antibodies were purchased from EBIOSCIENCE except recombinant TGF-β cytokine (R&D SYSTEMS, Minneapolis, Minn.). After 96 hrs of culture supernatants and cells were collected and analyzed by ELISA and flow cytometry, respectively.
(§3) Fluorescently labeled anti-mouse α-CD4 (GK1.5), α-CD25 (PC61), α-IFN-γ (XMG1.2) and unlabeled α-CD16/CD32 (2.4G2) antibodies were obtained from BD BIOSCIENCES (San Jose, Calif.). Fluorescently labeled anti-mouse α-IL-4 (FJK-16s), α-IL-10 (JES5-16E3), α-IL-17A (eBio17B7), and anti-TGFβ (TW7-16B4) were obtained from eBIOSCIENCE (San Diego, Calif.). Intracellular staining for IL-4, IL-10, IL-17A, IFNγ and TGFβ was performed according to manufacturers' protocols. Splenocytes were re-stimulated in complete media (RPMI media containing 10% FCS, 1% L-Glutamine, 1% Penicillin/Streptomycin; all Bio Whittaker, Walkersville, Md.) for 4 hours at 37° C. with ionomycin, phorbol 12-myristate 13-acetate and Brefelding A (EBIOSCIENCE). Cells were fixed and permeabilized using CYTOFIX/CYTOPERM solution (BD BIOSCIENCES). Flow cytometry measurements of single-cell suspensions were performed on a FACSCalibur using standard procedures and data were analyzed using FLOWJO software (TREE STAR, Ashland, Oreg.).

[4] = system: naïve CD4+ T cells; assay: Naïve CD4+ T cell differentiation under Th1 polarizing conditions (ELISA, flow cytometry); assay type: cell-based, mouse
Method: The inventors next investigated whether NAD^− regulates CD4^+ T cell differentiation in Th1 polarizing conditions. Isolated naïve CD4^+ T cells were cultured with anti-CD3/CD28 antibodies in presence of recombinant IL-12 and IL-2 cytokines and anti-IL4 antibody. […] In contrast to Th0 polarizing conditions, NAD^+ induced a robust IL-10 secretion (>3500 pg/ml) in Th1 cytokine environment (FIG. 1A). Furthermore, pro-inflammatory cytokines such as TNF-α and IL-6 were reduced by NAD^+ (FIG. 7C). […] Furthermore, the study tested whether NAD^+ promoted the shift of human CD4^+ T helper cells in Th1 polarizing conditions towards IL-10 cytokine production. Human peripheral blood CD4^| T cells were activated with anti-CD3/CD28 antibodies under Th1 polarizing conditions (recombinant IL-12 and IL-2 cytokines and anti-IL4 antibody) with increasing concentrations of NAD+. After 96 hours of culture, CD4^+IL-10^+IFNγ^+ cell frequency was assessed by flow cytometry analysis.
as §1, §2, §3

[5] = system: P2RX4, P2RX7, P2RY1, P2RY2, P2RY4; assay: Purinergic receptor expression in nTregs (real-time PCR, immunofluorescence); assay type: cell-based, mouse; details: 24 hrs
[6] = nTregs with NAD+, 24 hrs of culture
[7] = nTregs with NAD+, after 4 days of culture
[8] = nTregs, increasing NAD+, 96 hrs, real-time PCR and ELISA
[9] = nTregs, anti-CD3/CD28, with vs without NAD+

NC(=O)c1ccc[n+]([C@@H]2O[C@H](COP(=O)([O-])OP(=O)(O)OC[C@H]3O[C@@H](n4cnc5c(N)ncnc54)[C@H](O)[C@@H]3O)[C@@H](O)[C@H]2O)c1 [NAD+, nicotinamide adenine dinucleotide]
cells able to produce IL-17A ([1]; 250 μM NAD+, 96 hrs of culture): more than 16%
nTregs apoptosis ([1]; Annexin V, increasing NAD+): induced
proliferation of CD4+CD25−IL-17A+Foxp3+ cells (CFSE) ([1]; NAD+, dose dependent manner, no exogenous IL-23): able to proliferate
frequencies of CD4+CD25+FoxP3+ cells ([1]; increased NAD+ concentrations, IL-2, no TGFβ/IL-6): reduced
apoptosis of CD4+CD25−IL-17A+Foxp3+ cells (annexin V) ([1]; increasing NAD+, 48 and 96 hrs): did not become apoptotic
IL-17A cytokine production ([1]; nTregs from STAT3−/− mice vs wild type, with NAD+, 96 hrs, ELISA): reduced
frequency of IL-17A+ cells ([1]; nTregs from STAT3−/− mice vs wild type, with NAD+, 96 hrs, flow cytometry): significant decreased, but not complete
Foxp3 mRNA level [1, 6]: significantly increased
GATA3 expression level [1, 6]: remained unchanged
RORγt mRNA level [1, 6]: > 10 fold
STAT3 mRNA level [1, 6]: > 10 fold
STAT5 expression level [1, 6]: remained unchanged
Tbx21 expression level [1, 6]: remained unchanged
Foxp3 mRNA level [1, 7]: remained significantly increased
GATA-3 mRNA level [1, 7]: decreased significantly
RORγt mRNA level [1, 7]: remained significantly increased
STAT3 mRNA level [1, 7]: remained significantly increased
STAT5 mRNA level [1, 7]: decreased significantly
Tbx21 mRNA level [1, 7]: decreased significantly
IFNγ mRNA and cytokine levels [1, 8]: decreased in a dose dependent manner
IL-4 mRNA and cytokine levels [1, 8]: decreased in a dose dependent manner
IL-10 mRNA and cytokine levels [1, 8]: decreased dramatically
IL-17A mRNA and protein levels [1, 8]: increased in a dose dependent manner
TGFβ mRNA and cytokine levels [1, 8]: decreased dramatically
blood glucose levels ([2]; diabetic mice (higher than 600 mg/dl), NAD+ daily 40 mg per mouse): much lower levels; also recorded: marked decrease
insulin levels ([2]; diabetic mice (over 600 mg/dL), NAD+ daily 40 mg per mouse, 5 days after treatment): started to decline at a significant rate
activity of lethargic type 1 diabetic mice ([2]; within 10 days of NAD+ treatment): became much more active and aggressive
amount of TGFβ [3]: reduced amount
IL-6 production ([3]; ELISA): remained unchanged
IL-10 secretion ([3]; ELISA): reduced
IL-17A cytokine production ([3]; ELISA): increased
TNF-α production ([3]; ELISA): inhibited
frequency of CD4+IL10+ cells ([3]; flow cytometry): robust decreased frequency
frequency of CD4+IL17A+ cells ([3]; flow cytometry): increased frequency
number of CD4+TGFβ+IL-10+ cells ([3]; flow cytometry): decreased number
IFN-γ cytokine production ([4]; 96 hrs, ELISA): did not change
IL-6 production ([4]; 96 hrs, ELISA): reduced
IL-10 secretion ([4]; 96 hrs, ELISA): > 3500 pg/mL
IL-17A cytokine production ([4]; 96 hrs, ELISA): 400 pg/mL
TNF-α production ([4]; 96 hrs, ELISA): reduced
IL-10 production by Th1-IFN-γ producing cells ([4]; flow cytometry): promoted
frequency of CD4+IFN-γ cells ([4]; flow cytometry): increased frequencies
frequency of CD4+IL17A+ cells ([4]; flow cytometry): increased frequencies
frequency of CD4+IL-10+ cells ([4]; flow cytometry): increased frequencies
expression of P2RX4 receptor on the cell surface ([5]; immunofluorescence, 50 μM NAD): increased
expression of P2RX7 receptor on the cell surface ([5]; immunofluorescence, 50 μM NAD): increased
P2RX4 mRNA expression level [5, 9]: > 4 fold
P2RX7 mRNA expression level [5, 9]: > 15 fold
P2RY1 mRNA level ([5]; nTregs, with vs without NAD+): remained unchanged
P2RY2 mRNA level ([5]; nTregs, with vs without NAD+): remained unchanged
P2RY4 mRNA level ([5]; nTregs, with vs without NAD+): remained unchanged

— US20160067272A1, “METHODS FOR TREATING IMMUNE DISEASES” (priority 2013, published 2016)
